Reference: US20210223237A1, “COMPOSITIONS AND METHODS FOR STUDYING DRUG METABOLISM” (Boehringer Ingelheim International GmbH, priority 2020, published 2021)
“And” between values parts separate entries of the source, which are not always exact repeats. Identical values can stand only once. Marks after values point to notes of the source that are not given here.

Key:
[1] = Microsomal binding (fu,mic) using HLM-beads; conditions: for fu,mic: HLM-beads, compound 1.0 μM, (SD)
in vitro [2] = conditions: human
[3] = cited from earlier work
in vitro [4] = conditions: human; remark: listed apart in the source
[5] = Non-specific binding of compounds to magnetizable beads alone; conditions: 30 min incubation of beads (5.3×10^9 beads), bioanalysis of supernatant
[6] = Microsomal binding (fu,mic) using rapid equilibrium dialysis (RED); conditions: compound 1.0 μM, (SD)
CYP2C8 = molecular target: T1, CYP2C8 (Homo sapiens, UniProt P10632)
T1 sequence (P10632 1-490): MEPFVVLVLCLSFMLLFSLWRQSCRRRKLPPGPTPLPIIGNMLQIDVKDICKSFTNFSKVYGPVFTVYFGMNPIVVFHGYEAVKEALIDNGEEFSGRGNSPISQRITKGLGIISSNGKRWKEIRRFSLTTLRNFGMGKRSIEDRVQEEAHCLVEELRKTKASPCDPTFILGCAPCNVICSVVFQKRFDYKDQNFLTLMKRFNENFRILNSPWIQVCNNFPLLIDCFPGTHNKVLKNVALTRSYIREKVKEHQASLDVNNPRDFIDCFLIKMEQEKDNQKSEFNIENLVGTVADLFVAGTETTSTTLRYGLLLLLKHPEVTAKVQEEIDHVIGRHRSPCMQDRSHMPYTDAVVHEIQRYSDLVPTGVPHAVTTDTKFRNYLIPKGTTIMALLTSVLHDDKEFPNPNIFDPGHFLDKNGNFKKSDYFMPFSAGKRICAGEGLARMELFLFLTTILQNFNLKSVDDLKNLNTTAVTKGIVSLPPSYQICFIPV

UGT1A1 [7] = molecular target: T2, UGT1A1 (Homo sapiens, UniProt P22309); test: in vitro; conditions: pH 7.8
T2 sequence (P22309 26-533): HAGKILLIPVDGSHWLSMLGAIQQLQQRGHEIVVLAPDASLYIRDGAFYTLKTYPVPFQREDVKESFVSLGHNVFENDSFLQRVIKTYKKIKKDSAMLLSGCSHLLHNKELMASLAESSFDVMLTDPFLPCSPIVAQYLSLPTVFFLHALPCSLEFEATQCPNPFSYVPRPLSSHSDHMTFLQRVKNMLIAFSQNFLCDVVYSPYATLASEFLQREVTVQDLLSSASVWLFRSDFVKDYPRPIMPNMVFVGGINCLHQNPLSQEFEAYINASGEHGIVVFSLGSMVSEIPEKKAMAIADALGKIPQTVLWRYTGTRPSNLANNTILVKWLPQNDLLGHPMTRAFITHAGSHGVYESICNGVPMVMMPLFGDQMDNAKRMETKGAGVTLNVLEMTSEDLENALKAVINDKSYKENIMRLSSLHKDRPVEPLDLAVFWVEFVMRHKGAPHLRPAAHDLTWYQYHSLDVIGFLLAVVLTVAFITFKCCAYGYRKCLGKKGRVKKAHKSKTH

UGT1A1 [8] = molecular target: T2, UGT1A1; test: UGT1A1-catalyzed E2 3-glucuronidation kinetics in HLM suspensions vs HLM-beads
UGT2B7 = molecular target: T3, UGT2B7 (Homo sapiens, UniProt P16662); test: in vitro; conditions: for microsomal CLint: pH 7.8; for Km: pH 7.8, Km, Michaelis-Menten modeling
T3 sequence (P16662 24-529): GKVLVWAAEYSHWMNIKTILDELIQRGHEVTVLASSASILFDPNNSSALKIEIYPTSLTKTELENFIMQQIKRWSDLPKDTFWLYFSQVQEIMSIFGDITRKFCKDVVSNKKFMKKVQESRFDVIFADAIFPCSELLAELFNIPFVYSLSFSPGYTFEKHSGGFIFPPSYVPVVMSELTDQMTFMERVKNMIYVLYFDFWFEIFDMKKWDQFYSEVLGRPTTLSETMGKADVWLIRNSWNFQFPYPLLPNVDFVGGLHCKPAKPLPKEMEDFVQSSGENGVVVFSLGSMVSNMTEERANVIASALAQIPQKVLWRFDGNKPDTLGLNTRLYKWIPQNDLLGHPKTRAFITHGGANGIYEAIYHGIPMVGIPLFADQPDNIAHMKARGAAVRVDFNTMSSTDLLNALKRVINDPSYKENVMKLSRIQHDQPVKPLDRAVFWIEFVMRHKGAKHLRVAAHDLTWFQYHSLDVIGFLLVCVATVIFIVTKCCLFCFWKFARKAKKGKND

[9] = substrate: CC(C)c1cccc(C(C)C)c1O
not read [10] = substrate: CCN(CC)Cc1cc(Nc2ccnc3cc(Cl)ccc23)ccc1O; test: not read; conditions: other: HLM suspensions; substrate inhibition modeling; pH 7.4
not read [11] = substrate: C[C@]12CC[C@@H]3c4ccc(O)cc4CC[C@H]3[C@@H]1CC[C@@H]2O; test: not read; conditions: other: HLM suspensions; allosteric sigmoidal modeling; pH 7.8; 37.0 °C
[12] = human liver microsomes bound to magnetic beads (HLM-beads)
[13] = human liver microsomes (suspension)

## CN(C)CCCN1c2ccccc2Sc2ccc(Cl)cc21 [Chlorpromazine, chlorpromazine]
[1]; HLM 0.50 mg/ml
  fu,mic: 0.11 (0.02)
[1]; HLM […]
  fu,mic: 0.79 (0.13)

## CN(C)CCCN1c2ccccc2CCc2ccccc21 [Imipramine, imipramine]
In vitro [2]; microsomes
  fraction unbound at 6 h, 1 μM: 0.4

## COc1ccc([C@@H]2Sc3ccccc3N(CCN(C)C)C(=O)[C@@H]2OC(C)=O)cc1 [Diltiazem, diltiazem]
[1]; HLM 0.50 mg/ml
  fu,mic ratio HLM-beads/RED: 1.5
[1]; HLM 1.0 mg/ml
  fu,mic ratio HLM-beads/RED: 1.3
[1]; HLM […]
  fu,mic ratio HLM-beads/RED: 1.0
In vitro [2]; microsomes
  fraction unbound at 6 h, 1 μM: 0.96
[3]
  pKa: 9.4
In vitro [4]
  fraction unbound at 5 min, 1 μM: 0.99
In vitro [4]; [12]
  fraction unbound at 5 min, 1 μM: 0.97

## OCc1ncc2n1-c1ccc(Cl)cc1C(c1ccccc1F)=NC2 [1′OH midazolam, 1′hydroxymidazolam]
[5]
  non-specific binding to the beads: not observed

## CCC(C)n1ncn(-c2ccc(N3CCN(c4ccc(OCC5COC(Cn6cncn6)(c6ccc(Cl)cc6Cl)O5)cc4)CC3)cc2)c1=O (centres unmarked) [Itraconazole, itraconazole]
[1]; HLM 0.50 mg/ml
  fu,mic ratio HLM-beads/RED: 2.8
  fu,mic: 0.10 (0.01)
[1]; HLM 1.0 mg/ml
  fu,mic ratio HLM-beads/RED: 2.9
[1]; HLM […]
  fu,mic ratio HLM-beads/RED: 0.84
  fu,mic: 0.24 (0.04)
[6]; pre-soak method, HLM 0.50 mg/ml
  fu,mic: 0.036 (0.005)^b
[6]; pre-soak method, HLM […]
  fu,mic: 0.29 (0.07)^b
In vitro [2]
  fraction unbound at 6 h, 1 μM: 0.025
In vitro [4]; [12]
  fraction unbound at 5 min, 1 μM: 0.073

## CCN(CC)Cc1cc(Nc2ccnc3cc(Cl)ccc23)ccc1O [Amodiaquine, amodiaquine]
CYP2C8
  Km, times higher with HLM-beads than with HLM suspensions: approximately 2 ×

## C[C@]12CC[C@@H]3c4ccc(O)cc4CC[C@H]3[C@@H]1CC[C@@H]2O [E2, estradiol]
UGT1A1 [7]; [13]
  microsomal CLint: 59 µL/min/mg
UGT1A1 [7]
  microsomal CLint: 88 µL/min/mg
UGT1A1 [8]
  V/K or CLint, fold higher in HLM-beads than in HLM suspensions: higher
  Vmax, HLM-beads compared with HLM suspensions: comparable

## O=C(O)Cc1ccccc1Nc1c(Cl)cccc1Cl [Diclofenac, diclofenac]
[1]; HLM 0.50 mg/ml
  fu,mic: 0.92 (0.03)^a
In vitro [2]; microsomes
  fraction unbound at 6 h, 1 μM: 0.98
In vitro [4]
  fraction unbound at 5 min, 1 μM: 0.94
In vitro [4]; [12]
  fraction unbound at 5 min, 1 μM: 0.87

## Cc1cn([C@H]2C[C@H](N=[N+]=[N-])[C@@H](CO)O2)c(=O)[nH]c1=O [AZT, zidovudine]
UGT2B7; [13]
  microsomal CLint: 0.44 µL/min/mg
UGT2B7
  microsomal CLint: 2.8 µL/min/mg
UGT2B7; HLM suspensions
  Km: 1400 ± 0.1 µM
UGT2B7; HLM-beads
  Km: 490 ± 0.06 µM

## Cc1nnc2n1-c1ccc(Cl)cc1C(c1ccccc1)=NC2 [Alprazolam]
[1]; HLM 0.50 mg/ml
  fu,mic ratio HLM-beads/RED: 0.77
  fu,mic: 0.78 (0.06)
[1]; HLM 1.0 mg/ml
  fu,mic ratio HLM-beads/RED: 0.66
  fu,mic: 0.68 (0.07)
[1]; HLM […]
  fu,mic ratio HLM-beads/RED: 0.82
[6]; HLM 0.50 mg/ml
  fu,mic: 1.0 (0.1)
[6]; HLM 1.0 mg/ml
  fu,mic: 1.0 (0.1)
In vitro [2]; microsomes
  fraction unbound at 6 h, 1 μM: 0.98
In vitro [4]; microsomes
  fraction unbound at 5 min, 1 μM: 0.81

## CCCCNC(=O)NS(=O)(=O)c1ccc(C)cc1 [Tolbutamide, tolbutamide]
[3]
  pKa: 5.2

B1: UGT1A9 (Homo sapiens) (protein)
chain: GKLLVVPMDGSHWFTMRSVVEKLILRGHEVVVVMPEVSWQLGRSLNCTVKTYSTSYTLEDLDREFKAFAHAQWKAQVRSIYSLLMGSYNDIFDLFFSNCRSLFKDKKLVEYLKESSFDAVFLDPFDNCGLIVAKYFSLPSVVFARGILCHYLEEGAQCPAPLSYVPRILLGFSDAMTFKERVRNHIMHLEEHLLCHRFFKNALEIASEILQTPVTEYDLYSHTSIWLLRTDFVLDYPKPVMPNMIFIGGINCHQGKPLPMEFEAYINASGEHGIVVFSLGSMVSEIPEKKAMAIADALGKIPQTVLWRYTGTRPSNLANNTILVKWLPQNDLLGHPMTRAFITHAGSHGVYESICNGVPMVMMPLFGDQMDNAKRMETKGAGVTLNVLEMTSEDLENALKAVINDKSYKENIMRLSSLHKDRPVEPLDLAVFWVEFVMRHKGAPHLRPAAHDLTWYQYHSLDVIGFLLAVVLTVAFITFKCCAYGYRKCLGKKGRVKKAHKSKTH
[9]
  K0.5: 30 ± 4 μM and 13 ± 2^sig μM

B2: CYP2C8 (Homo sapiens) (protein)
chain: MEPFVVLVLCLSFMLLFSLWRQSCRRRKLPPGPTPLPIIGNMLQIDVKDICKSFTNFSKVYGPVFTVYFGMNPIVVFHGYEAVKEALIDNGEEFSGRGNSPISQRITKGLGIISSNGKRWKEIRRFSLTTLRNFGMGKRSIEDRVQEEAHCLVEELRKTKASPCDPTFILGCAPCNVICSVVFQKRFDYKDQNFLTLMKRFNENFRILNSPWIQVCNNFPLLIDCFPGTHNKVLKNVALTRSYIREKVKEHQASLDVNNPRDFIDCFLIKMEQEKDNQKSEFNIENLVGTVADLFVAGTETTSTTLRYGLLLLLKHPEVTAKVQEEIDHVIGRHRSPCMQDRSHMPYTDAVVHEIQRYSDLVPTGVPHAVTTDTKFRNYLIPKGTTIMALLTSVLHDDKEFPNPNIFDPGHFLDKNGNFKKSDYFMPFSAGKRICAGEGLARMELFLFLTTILQNFNLKSVDDLKNLNTTAVTKGIVSLPPSYQICFIPV
Not read [10]
  Km: 0.732 ± 0.11 µM
  Vmax/Km: 1340 µL/min/mg

B3: UGT1A1 (Homo sapiens) (protein)
chain: HAGKILLIPVDGSHWLSMLGAIQQLQQRGHEIVVLAPDASLYIRDGAFYTLKTYPVPFQREDVKESFVSLGHNVFENDSFLQRVIKTYKKIKKDSAMLLSGCSHLLHNKELMASLAESSFDVMLTDPFLPCSPIVAQYLSLPTVFFLHALPCSLEFEATQCPNPFSYVPRPLSSHSDHMTFLQRVKNMLIAFSQNFLCDVVYSPYATLASEFLQREVTVQDLLSSASVWLFRSDFVKDYPRPIMPNMVFVGGINCLHQNPLSQEFEAYINASGEHGIVVFSLGSMVSEIPEKKAMAIADALGKIPQTVLWRYTGTRPSNLANNTILVKWLPQNDLLGHPMTRAFITHAGSHGVYESICNGVPMVMMPLFGDQMDNAKRMETKGAGVTLNVLEMTSEDLENALKAVINDKSYKENIMRLSSLHKDRPVEPLDLAVFWVEFVMRHKGAPHLRPAAHDLTWYQYHSLDVIGFLLAVVLTVAFITFKCCAYGYRKCLGKKGRVKKAHKSKTH
Not read [11]
  K0.5: 13 ± 1 µM
